Source: article PMC10657444, “Design and evaluation of tadpole-like conformational antimicrobial peptides” (Communications Biology, 2023)
Converted amounts (≈) assume the structure as drawn. Read-outs that look alike come from different tables or passages of the source. Residues, ends and D or L forms follow the SMILES beside them.

Assays:
[1] = test system: K. pneumoniae ATCC 700603; format: cell-based, Klebsiella pneumoniae
Text: (§1) Bacteria were cultivated in Luria-Bertani (LB) broth.

K. pneumoniae 3026 = format: cell-based, Klebsiella pneumoniae
Text: as §1

MRSA ATCC 43300 = format: cell-based, Staphylococcus aureus
Text: as §1

MRSA 3393 = format: cell-based, Staphylococcus aureus
Text: as §1

MRSA USA 300 = format: cell-based, Staphylococcus aureus
Text: as §1

MTT cytotoxicity assay = format: cell-based, human; details: human
Protocol: (§2) To determine the cytotoxicity of the peptides, we used the MTT (3-(4,5)-dimethylthiahiazo (-z-y1)-3,5-di-phenytetrazoliumromide) dye reduction assay against HEK293T cells. In brief, the 100 μL of cells in 96-well plate were incubated for 24 h at 37 °C, 5% CO2, and then peptide solutions (concentrations ranging from 100 to 0.39 μM) were added and further incubated for 72 h. MTT solution (5 mg/mL) was added and further incubated for 4 h. After incubation, the precipitated MTT formazan crystal was dissolved by addition of dimethyl sulfoxide (DMSO). […]

HEK293T cells = assay: MTT cytotoxicity assay; format: cell-based, human
Protocol: as §2

E. coli ATCC 25922 = format: cell-based, Escherichia coli
Text: as §1

E. coli S = format: cell-based, Escherichia coli
Text: as §1

A. baumannii 1318 = format: cell-based, Acinetobacter baumannii
Text: as §1

A. baumannii 1337 = format: cell-based, Acinetobacter baumannii
Text: as §1

[2] = test system: Gram-negative bacterial strains; format: cell-based
Text: as §1

sheep red blood cells = assay: Hemolysis assay; details: red cells of sheep, 1 h
Protocol: To evaluate the hemolysis effects of peptides, red blood hemolysis was performed as described with minimum modifications. Sterile defibrated sheep blood was purchased from Guangzhou Hongquan Biotechnology Co., LTD. Blood cells were adjusted to 2 × 10^9 cells/mL in phosphate-buffered saline (PBS, pH 7.4). In total, 98 μL sheep red blood cell suspension was incubated with 2 μL of peptides at different concentrations ranging from 3.13 to 100 µM. After incubation for 1 h at 37 °C, the cells were centrifuged and the absorbance of the supernatant was measured at 450 nm. The value for “zero hemolysis” was determined using sterile PBS, while 100% hemolysis was established using 1.5% (v/v) Triton X-100. Hemolysis of testing sample was calculated as the percentage of Triton X-100-induced hemolysis.

MRSA = format: cell-based, Staphylococcus aureus
Text: as §1

[3] = HEK293T cells, OD450, cytotoxicity (Fig 2a), replicates

MIC Gram- K. p ATCC 700603 [1] | MIC Gram- K. p 3026 (K. pneumoniae 3026) | MIC Gram+ MRSA ATCC 43300 (MRSA ATCC 43300; ATCC 43300) | MIC Gram+ MRSA USA 300 (MRSA USA 300) | MIC Gram- E. coli ATCC 25922 (E. coli ATCC 25922) | MIC Gram- E. coli S (E. coli S) | MIC Gram- A. b 1318 (A. baumannii 1318) | MIC Gram- A. b 1337 (A. baumannii 1337) | MIC Gram+ MRSA 3393 (MRSA 3393; 3393) | SMILES | IC50 at 72 h (MTT cytotoxicity assay) | viability at 72 h, 0.39 µM (MTT cytotoxicity assay; [3]) | viability at 72 h, 0.78 µM (MTT cytotoxicity assay; [3]) | viability at 72 h, 1.57 µM (MTT cytotoxicity assay; [3]) | viability at 72 h, 6.25 µM (MTT cytotoxicity assay; [3]) | viability at 72 h, 12.5 µM (MTT cytotoxicity assay; [3]) | viability at 72 h, 25 µM (MTT cytotoxicity assay; [3]) | viability at 72 h, 50 µM (MTT cytotoxicity assay; [3]) | viability at 72 h, 100 µM (MTT cytotoxicity assay; [3]) | toxicity / cytotoxicity against HEK293T cells (in words) (HEK293T cells) | HC10 (concentration inducing 10% hemolysis) (sheep red blood cells) | other results
25 µM (≈ 40.1 µg/mL) | 12.5 µM (≈ 20 µg/mL) | 1.57 µM (≈ 2.52 µg/mL) | 1.57 µM (≈ 2.52 µg/mL) | 12.5 µM (≈ 20 µg/mL) | 6.25 µM (≈ 10 µg/mL) | 12.5 µM (≈ 20 µg/mL) | 12.5 µM (≈ 20 µg/mL) | – | CC[C@H](C)[C@H](NC(=O)[C@H](CCCNC(=N)N)NC(=O)[C@H](CCCNC(=N)N)NC(=O)[C@H](CC(C)C)NC(=O)[C@H](Cc1ccccc1)NC(=O)[C@H](Cc1ccccc1)NC(=O)[C@H](Cc1ccccc1)NC(=O)[C@@H](N)Cc1ccccc1)C(=O)N[C@@H](Cc1ccccc1)C(=O)N[C@@H](CCCNC(=N)N)C(=O)N[C@@H](CCCNC(=N)N)C(N)=O [F-SHf(R^5)-RR] (H-FFFFLRRIFRR-NH2; N-terminus assumed) | 500 nM | 69.1% | 45.9% | 6.12% | 3.98% | 2.72% | 3.79% | 2.62% | 1.75% | high toxicity | > 100.0 µM | MIC Gram+ MRSA ATCC 43300 (MRSA ATCC 43300): 1.57 µM (≈ 2.52 µg/mL); MIC Gram+ MRSA 3393 (MRSA 3393): 1.57 µM (≈ 2.52 µg/mL); MICs against the tested Gram-negative bacterial strains [2]: 6.25 to 25 µM
> 100 µM | 100 µM (≈ 129 µg/mL) | 1.57 µM (≈ 2.03 µg/mL) | 3.13 µM (≈ 4.04 µg/mL) | 12.5 µM (≈ 16.1 µg/mL) | 50 µM (≈ 64.6 µg/mL) | 25 µM (≈ 32.3 µg/mL) | 25 µM (≈ 32.3 µg/mL) | 1.57 µM (≈ 2.03 µg/mL) | CC[C@H](C)[C@H](NC(=O)[C@H](CCCNC(=N)N)NC(=O)[C@H](CCCNC(=N)N)NC(=O)[C@H](CC(C)C)NC(=O)[C@H](Cc1ccccc1)NC(=O)[C@H](Cc1ccccc1)NC(=O)[C@H](Cc1ccccc1)NC(=O)[C@@H](N)Cc1ccccc1)C(=O)N[C@@H](Cc1ccccc1)C(N)=O [F-SHf(R^5)] (H-FFFFLRRIF-NH2; N-terminus assumed) | 4600 nM | 102% | 89.7% | 89.3% | 40.1% | 20.8% | 12.3% | 16.4% | 17.1% | high toxicity | 7.9 µM | viability at 72 h, 3.13 µM (MTT cytotoxicity assay; [3]): 78.6%
> 100 µM | > 100 µM | 50 µM (≈ 68.5 µg/mL) | 6.25 µM (≈ 8.56 µg/mL) | > 100 µM | > 100 µM | > 100 µM | > 100 µM | 3.13 µM (≈ 4.29 µg/mL) | CC[C@H](C)[C@H](NC(=O)[C@H](CCCNC(=N)N)NC(=O)[C@H](CO)NC(=O)[C@H](CC(C)C)NC(=O)[C@H](Cc1ccccc1)NC(=O)[C@H](Cc1ccccc1)NC(=O)[C@H](Cc1ccccc1)NC(=O)[C@H](Cc1ccccc1)NC(=O)[C@@H](N)Cc1ccccc1)C(=O)N[C@@H](Cc1ccccc1)C(N)=O [FF-SHf] (H-FFFFFLSRIF-NH2; N-terminus assumed) | – | – | – | – | – | – | – | – | – | – | – | MICs against MRSA (MRSA): 3.13 to 50 µM
> 100 µM | > 100 µM | 6.25 µM (≈ 8.76 µg/mL) | 6.25 µM (≈ 8.76 µg/mL) | > 100 µM | > 100 µM | > 100 µM | > 100 µM | 50 µM (≈ 70.1 µg/mL) | CC[C@H](C)[C@H](NC(=O)[C@H](CCCNC(=N)N)NC(=O)[C@H](CO)NC(=O)[C@H](CC(C)C)NC(=O)[C@H](Cc1ccccc1)NC(=O)[C@H](Cc1ccccc1)NC(=O)[C@H](Cc1ccccc1)NC(=O)[C@H](Cc1ccc(O)cc1)NC(=O)[C@@H](N)Cc1ccc(O)cc1)C(=O)N[C@@H](Cc1ccccc1)C(N)=O [YY-SHf] (H-YYFFFLSRIF-NH2; N-terminus assumed) | – | – | – | – | – | – | – | – | – | – | – | MICs against MRSA (MRSA): 3.13 to 50 µM
